Measured values as given in EP3723745B1, “PHENOXY ACIDS FOR THE TREATMENT OF NEUROMUSCULAR DISORDERS” (NMD Pharma A/S, priority 2017, dated 2019).

How the values were obtained:
CIC-1 channels = biological target: T1, CIC-1 channels (Rattus norvegicus, UniProt P35524); experiment: Electrophysiological measurement of compound inhibition of CIC-1 in rat muscle (Gm, three micro-electrodes technique); format: cell-based; conditions: reduction of Gm in fibres of whole rat soleus muscles, approx. 30°C; n = number of experiments
T1 construct: from tissue; host or cells: intact soleus muscle of 12-14-week old Wistar rats
T1 sequence (P35524 1-994): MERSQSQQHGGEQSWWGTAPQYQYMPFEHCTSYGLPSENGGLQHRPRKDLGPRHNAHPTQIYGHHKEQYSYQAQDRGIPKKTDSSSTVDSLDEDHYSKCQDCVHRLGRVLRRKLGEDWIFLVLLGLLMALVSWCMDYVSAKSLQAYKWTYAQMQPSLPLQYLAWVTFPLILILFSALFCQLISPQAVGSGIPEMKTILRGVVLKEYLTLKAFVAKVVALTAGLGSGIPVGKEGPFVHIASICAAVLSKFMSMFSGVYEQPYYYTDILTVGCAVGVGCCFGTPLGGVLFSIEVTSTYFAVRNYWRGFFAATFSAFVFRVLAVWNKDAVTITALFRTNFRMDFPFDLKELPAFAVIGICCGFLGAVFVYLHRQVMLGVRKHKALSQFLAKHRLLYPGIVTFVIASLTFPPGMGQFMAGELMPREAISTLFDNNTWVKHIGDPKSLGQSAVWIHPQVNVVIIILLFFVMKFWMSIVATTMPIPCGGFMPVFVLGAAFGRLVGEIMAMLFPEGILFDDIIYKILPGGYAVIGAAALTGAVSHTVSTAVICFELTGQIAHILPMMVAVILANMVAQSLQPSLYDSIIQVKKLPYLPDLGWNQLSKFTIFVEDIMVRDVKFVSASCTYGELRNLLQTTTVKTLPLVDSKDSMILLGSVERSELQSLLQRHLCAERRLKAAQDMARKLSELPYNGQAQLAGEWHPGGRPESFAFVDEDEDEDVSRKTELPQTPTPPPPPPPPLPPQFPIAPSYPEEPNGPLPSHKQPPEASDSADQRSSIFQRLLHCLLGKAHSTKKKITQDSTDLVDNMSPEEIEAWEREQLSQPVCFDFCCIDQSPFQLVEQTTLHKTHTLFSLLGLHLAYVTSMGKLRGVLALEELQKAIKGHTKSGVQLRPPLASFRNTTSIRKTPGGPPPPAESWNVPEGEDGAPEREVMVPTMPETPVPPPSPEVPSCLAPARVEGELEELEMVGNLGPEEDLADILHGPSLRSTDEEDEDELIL
Source text: Table 2: Inhibition of CIC-1 ion channel using compounds of the invention

soleus muscles = experiment: Measurement of force in an in vitro model: isolated rat nerve-muscle preparation with tubocurarine; conditions: Rattus norvegicus, 40 min; percentage of initial force restored after 40 mins with 50 µM test compound; tubocurarine (115 nM) for 90 mins; read-out: Point increase
Method: Recovery of force is quantified as the percentage of the force prior to tubocurarine that is recovered by the compound.
The current invention relates to compounds that inhibit CIC-1 ion channels and increase muscle excitability and thereby improve muscle function in clinical conditions where muscle activation is failing. Such conditions result in loss of contractile function of skeletal muscle, weakness and excessive fatigue. In this series of experiments the compounds were tested for their ability to restore contractile function of isolated rat muscle when the neuromuscular transmission had been compromised akin to neuromuscular disorders.
Experimentally, soleus muscles from 4-5 wk old rats were isolated with the motor nerve remaining attached. The nerve-muscle preparations were mounted in experimental setups that enabled electrical stimulation of the motor nerve. Stimulation of the motor nerve led to activation of the muscle fibres and ensuing force production that was recorded.
After mounting the nerve-muscle preparation in the experimental setup, the contractile function of the muscle was initially assessed under the control conditions (Figure 2A). […] The experimental condition mimics the failing neuromuscular transmission in a range of neuromuscular disorders. After addition of tubocurarine the contractile force declined over the next 90 mins to 10-50 % of the control force. 50 µM of the test compound was then added and the contractile force recovered despite the continued presence of tubocurarine. To quantify the ability of the compound to restore force the percentage of the initial force that was restored was determined after 40 mins of compound exposure (Figure 2B) and the point increase is reported in Table 3. Table 3: Percentage increase of initial force that was restored using compounds of the invention

female Lewis rats = experiment: Measurement of in situ muscle contractile characteristics (isometric hindlimb force, cisatracurium block); format: in vivo, rat; conditions: for average increase in twitch peaks: 12 Hz; for average increase in twitch peaks / average increase in tetanic force: cisatracurium infusion; for average increase in tetanic force: 80 Hz; for restore force to muscles in vivo: muscles partially inhibited by a neuromuscular blocker, summary in words
Method: Isometric hindlimb force was measured in 12-week old female Lewis rats in the presence and absence of compound.
Rats were placed under anesthesia with isoflurane (2-4%), intubated and subsequently connected to a micro ventilator (Microvent 1, Hallowell EMC, US). Two stimulation electrodes were inserted through the skin to stimulate the sciatic nerve. A small incision was made proximal to the ankle, to expose the Achilles tendon, which was tied by cotton string, and connected to a force transducer (Fort250, World Precision Instruments) with adjustable position (Vernier control). The Achilles tendon was then cut distal to the attached cotton string. The rat was placed on a heated pad, and to prevent movement artefacts from contraction of the ankle dorsiflexors, the foot was fixated by tape on a footplate.
Muscle contractile properties were assessed by applying an electrical current (under supramaximal voltage conditions) to the nerve and recording the force generated by the muscle. The muscle was stretched until maximal force was obtained, when assessed by 2 Hz stimulation. Isometric force was measured every 30 seconds at 12 Hz (Twitch), 10 pulses, and at every 5 minutes at 80 Hz (Tetanic) for 1 second (80 pulses). This stimulation pattern was employed throughout the experiment, expect in few cases where 80 Hz stimulation was replaced by 12 Hz (10 pulses). […] When the level of neuromuscular inhibition was stable, the test article was injected i.v. at the chosen concentration. The effect of test article was assessed on its ability to increase force generated from the stimulation pattern applied. The effect was assessed in the ability to increase force per se (tetanic, 80 Hz, stimulation), and the ratio between individual twitch peaks (12 Hz stimulation). The effect was monitored for at least 1 hour after injection of test article. In addition, the time from injection of test article to maximal effect on force (both twitch and tetanic) was noted and the time for the effect to disappear (return to baseline), if possible. When appropriate the infusion of neuromuscular blocking agent was ceased, with the stimulation pattern continued, and the return of force to control levels was monitored. Animals were sacrificed by cervical dislocation while still fully sedated.

| SMILES | EC50 (CIC-1 channels) | activation at 50 µM (soleus muscles) | average increase in twitch peaks (female Lewis rats; 42 mg/kg i.v.) | average increase in tetanic force (female Lewis rats; 42 mg/kg i.v.) | restore force to muscles in vivo (female Lewis rats) | average increase in twitch peaks (female Lewis rats; 20 mg/kg i.v.) | average increase in tetanic force (female Lewis rats; 20 mg/kg i.v.) | average increase in twitch peaks (female Lewis rats; 40 mg/kg i.v.) | average increase in tetanic force (female Lewis rats; 40 mg/kg i.v.) |
| --- | --- | --- | --- | --- | --- | --- | --- | --- | --- |
| O=C(O)[C@H](CCF)Oc1ccc(Br)cc1 [Compound A-87, (2S)-2-(4-bromophenoxy)-4-fluorobutanoic acid] | 4.5 ± 0.8 µM | 37% | 5.8% | 19.3% | can restore force |  |  |  |  |
| [2H][C@@](CC)(Oc1ccc(Br)cc1)C(=O)O [Compound A-60, (2S)-2-(4-bromophenoxy)(2-^2H)butanoic acid] | 7.5 ± 1 µM | 62% |  |  | can restore force | 18.5% | 52.7% |  |  |
| CC(C)[C@H](Oc1ccc(Br)cc1F)C(=O)O [Compound A-27, (2S)-2-(4-bromo-2-fluorophenoxy)-3-methylbutanoic acid] | 4.5 µM | 46% |  |  | can restore force |  |  | 12.2% | 36.4% |
